Data set [1] relates to Haemophilus influenzae. The experiment in a line: Antibacterial activity against Haemophilus influenzae ATCC 43095 assessed as reduction in bacterial growth incubated for 20 hrs. It counts as functional.
The target in data set [2] is T1, 1-deoxy-D-xylulose-5-phosphate synthase (Haemophilus influenzae (strain 86-028NP), UniProt Q4QKG6).
T1 sequence (Q4QKG6 whole entry): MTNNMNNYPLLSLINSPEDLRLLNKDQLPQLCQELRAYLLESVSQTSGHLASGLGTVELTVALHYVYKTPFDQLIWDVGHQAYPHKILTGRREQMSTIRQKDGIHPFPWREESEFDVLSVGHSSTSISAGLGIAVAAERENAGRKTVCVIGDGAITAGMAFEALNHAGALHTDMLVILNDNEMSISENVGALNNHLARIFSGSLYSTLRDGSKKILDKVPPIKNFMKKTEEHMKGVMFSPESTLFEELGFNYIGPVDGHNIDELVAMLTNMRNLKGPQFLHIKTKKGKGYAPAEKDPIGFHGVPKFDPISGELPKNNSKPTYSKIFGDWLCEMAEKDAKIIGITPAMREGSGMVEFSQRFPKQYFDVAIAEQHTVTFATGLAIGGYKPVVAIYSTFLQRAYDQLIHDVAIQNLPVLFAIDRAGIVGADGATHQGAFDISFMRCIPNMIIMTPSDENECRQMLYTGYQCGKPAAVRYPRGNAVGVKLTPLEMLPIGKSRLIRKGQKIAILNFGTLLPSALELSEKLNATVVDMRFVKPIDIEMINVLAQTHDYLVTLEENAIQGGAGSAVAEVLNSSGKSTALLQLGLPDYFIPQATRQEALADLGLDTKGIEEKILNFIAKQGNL
The experiment in a line: Inhibition of Haemophilus influenzae recombinant DXPS.

The nature of data set [3]: Inhibition of N-terminal his-tagged Chlamydomonas DXPS.
Data set [4] is described as follows: Permeability of the compound assessed as absorbed fraction incubated for 10 hrs by PAMPA assay. It counts as ADME. Background: The PAMPA barrier holds no transporters, so it reflects passive diffusion.
In data set [5] the test system is HFF. The experiment in a line: Cytotoxicity against human HFF cells assessed as inhibition of cell proliferation upto 1000 uM incubated for 96 hrs by SYBR-safe assay. It counts as toxicity, cell-based.
Data set [6] has as its system Escherichia coli. The experiment in a line: Antibacterial activity against Escherichia coli W3110 assessed as reduction in bacterial growth incubated for 20 hrs. It counts as functional.

This is an account of results in ChEMBL document CHEMBL5532701 (RSC Med Chem, 2024).

Structures are written as SMILES. ≈ marks a conversion by molar mass, not a printed value.

As to `CC(C)(C(=O)O)C(=O)N(O)Cc1ccccc1Cl`, in data set [1], the MIC came to 117 µM (≈ 31.8 µg/mL).

For `CC1(C)C(=O)ON(Cc2ccccc2Cl)C1=O` [KETOCLOMAZONE], the MIC in data set [1] was 31 µM (≈ 7.86 µg/mL); in data set [6], 3100 µM (≈ 786 µg/mL). Besides, the results for the half-maximal inhibitory concentration (IC50) in data set [2] and in data set [3] were 28 µM and 100 µM, respectively. Moreover, the permeability in data set [4] was 47%. Besides, in data set [5], the Activity entry is on record as “Non-Toxic”.

A word on the IC50: it is the midpoint of a concentration-inhibition curve.
